Laboratory results from patent US20250197368A1 (priority 2020, published 2025).
Where a name gives a salt, the structure may show the parent alone.

Experiments:
[1] = test system: human α2β3γ2 GABAARs; assay: In vitro electrophysiological recording assay (automated patch-clamp), α2-GABAAR relative efficacy; type: cell-based; conditions: % efficacy normalised to diazepam; GABA EC10-20; concentration generally >= 100 times Ki
Method in brief: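 Automated whole-cell patch clamp at 20-22° C on L(tk^−) cells (QPatch, −65 mV) or HEK293 cells (SyncroPatch, −80 mV) stably expressing the human receptor. Compound pre-applied ≥1 min, then co-applied with GABA EC10-20; % potentiation of leak-corrected peak current, normalised to diazepam, typically at ≥100× Ki.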

[2] = target: human α2β3γ2 GABAARs (benzodiazepine site) (Homo sapiens (Human), UniProt P18507+P47869); assay: In vitro radioligand binding assay ([3H]Ro15-1788 displacement), α2-GABAAR Ki
Method in brief: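 Membranes from dexamethasone-induced mouse L(tk−) cells stably expressing the human receptor were incubated 1 h at 4° C with 4 nM [3H]Ro15-1788 and graded compound; nonspecific binding with 1-3 μM TP003. Filter-bound radioactivity counted; Ki from IC50 by Cheng-Prusoff using the measured radioligand Kd.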

Chain of human α2β3γ2 GABAARs (benzodiazepine site) (P47869 29-451): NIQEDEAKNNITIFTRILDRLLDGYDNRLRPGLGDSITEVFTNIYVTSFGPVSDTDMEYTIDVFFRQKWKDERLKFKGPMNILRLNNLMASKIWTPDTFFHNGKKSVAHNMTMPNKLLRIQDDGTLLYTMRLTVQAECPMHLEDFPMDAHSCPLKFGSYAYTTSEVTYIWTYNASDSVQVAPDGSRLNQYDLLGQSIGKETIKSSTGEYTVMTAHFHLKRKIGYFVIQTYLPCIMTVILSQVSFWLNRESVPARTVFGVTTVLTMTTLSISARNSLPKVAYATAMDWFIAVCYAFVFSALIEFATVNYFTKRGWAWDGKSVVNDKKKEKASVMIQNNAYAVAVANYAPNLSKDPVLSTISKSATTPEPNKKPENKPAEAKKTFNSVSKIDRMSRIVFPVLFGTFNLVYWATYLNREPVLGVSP
Chain of human α2β3γ2 GABAARs (benzodiazepine site) (P28472 26-473 partner): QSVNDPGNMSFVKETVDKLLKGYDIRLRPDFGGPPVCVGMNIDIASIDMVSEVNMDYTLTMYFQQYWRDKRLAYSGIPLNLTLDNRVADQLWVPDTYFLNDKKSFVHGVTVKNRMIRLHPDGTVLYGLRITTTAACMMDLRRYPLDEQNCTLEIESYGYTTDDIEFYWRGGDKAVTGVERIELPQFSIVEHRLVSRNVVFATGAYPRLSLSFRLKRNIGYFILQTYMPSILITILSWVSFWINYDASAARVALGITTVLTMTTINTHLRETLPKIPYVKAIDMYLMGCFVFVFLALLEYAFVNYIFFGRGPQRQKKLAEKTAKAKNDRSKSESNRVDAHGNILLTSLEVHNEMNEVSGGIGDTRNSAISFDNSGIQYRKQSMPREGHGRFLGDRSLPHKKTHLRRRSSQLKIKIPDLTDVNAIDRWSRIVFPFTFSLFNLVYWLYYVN
Chain of human α2β3γ2 GABAARs (benzodiazepine site) (P18507 40-475): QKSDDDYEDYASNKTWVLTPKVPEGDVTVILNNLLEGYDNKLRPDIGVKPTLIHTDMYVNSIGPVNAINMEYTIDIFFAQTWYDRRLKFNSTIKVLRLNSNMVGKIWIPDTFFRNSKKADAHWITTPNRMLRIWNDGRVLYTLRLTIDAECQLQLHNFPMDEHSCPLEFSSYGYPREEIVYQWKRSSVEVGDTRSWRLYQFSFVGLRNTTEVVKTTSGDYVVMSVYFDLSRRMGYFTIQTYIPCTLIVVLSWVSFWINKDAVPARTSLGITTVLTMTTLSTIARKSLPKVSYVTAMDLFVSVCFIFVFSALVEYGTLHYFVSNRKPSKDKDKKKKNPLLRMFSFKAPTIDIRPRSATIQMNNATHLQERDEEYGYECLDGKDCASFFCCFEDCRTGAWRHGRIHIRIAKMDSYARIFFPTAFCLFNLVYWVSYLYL

SMILES	α2-GABAAR Relative Efficacy (vs. Diazepam) [1]	Ki [2] [nM]
CCCNC(=O)c1c(N)c2cccc(-c3cc(OCc4coc(C(C)C)n4)ccc3F)c2[nH]c1=O [Example 123, 4-Amino-8-[2-fluoro-5-[(2-isopropyloxazol-4-yl)methoxy]phenyl]-2-oxo-N-propyl-1H-quinoline-3-carboxamide]	0.2549	1.71
CCCNC(=O)c1c(N)c2cccc(-c3cc(OCc4cncn4C)ccc3F)c2[nH]c1=O [Example 125, 4-Amino-8-(2-fluoro-5-((1-methyl-1H-imidazol-5-yl)methoxy)phenyl)-2-oxo-N-propyl-1,2-dihydroquinoline-3-carboxamide]	0.22	0.37
CCCNC(=O)c1c(N)c2cccc(-c3cc(OCc4cn(C)cn4)ccc3F)c2[nH]c1=O [Example 126, hydrochloride]	0.27	1.19
CCCNC(=O)c1c(N)c2cccc(-c3cc(OCc4cc[nH]n4)ccc3F)c2[nH]c1=O [Example 127, 4-Amino-8-[2-fluoro-5-(1H-pyrazol-3-ylmethoxy)phenyl]-2-oxo-N-propyl-1H-quinoline-3-carboxamide]	0.24	0.78
CCCNC(=O)c1c(N)c2cccc(-c3cc(OCc4ccn(C)n4)ccc3F)c2[nH]c1=O [Example 128, 4-Amino-8-[2-fluoro-5-[(1-methylpyrazol-3-yl)methoxy]phenyl]-2-oxo-N-propyl-1H-quinoline-3-carboxamide]	0.24	1.08
CCCNC(=O)c1c(N)c2cccc(-c3cc(OCc4cn(C)nn4)ccc3F)c2[nH]c1=O [Example 129, 4-Amino-8-[2-fluoro-5-[(1-methyltriazol-4-yl)methoxy]phenyl]-2-oxo-N-propyl-1H-quinoline-3-carboxamide]	0.25	0.65
CCCNC(=O)c1c(N)c2cccc(-c3cc(OCc4noc(C)n4)ccc3F)c2[nH]c1=O [Example 130, 4-Amino-8-[2-fluoro-5-[(5-methyl-1,2,4-oxadiazol-3-yl)methoxy]phenyl]-2-oxo-N-propyl-1H-quinoline-3-carboxamide]	0.18	0.65
CCCNC(=O)c1c(N)c2cccc(-c3cc(OCc4nnc(C)o4)ccc3F)c2[nH]c1=O [Example 131, 4-Amino-8-(2-fluoro-5-((5-methyl-1,3,4-oxadiazol-2-yl)methoxy)phenyl)-2-oxo-N-propyl-1,2-dihydroquinoline-3-carboxamide]	0.40	0.3
CCCNC(=O)c1c(N)c2cccc(-c3cc(OCc4ccc5[nH]cnc5c4)ccc3F)c2[nH]c1=O [Example 133, 8-(5-((1H-Benzo[d]imidazol-5-yl)methoxy)-2-fluorophenyl)-4-amino-2-oxo-N-propyl-1,2-dihydroquinoline-3-carboxamide]	0.23	1.29
CCCNC(=O)c1c(N)c2cccc(-c3cc(OCCn4cnnc4)ccc3F)c2[nH]c1=O [Example 134, 4-Amino-8-[2-fluoro-5-[2-(1,2,4-triazol-4-yl)ethoxy]phenyl]-2-oxo-N-propyl-1H-quinoline-3-carboxamide]	0.04	0.17
CCCNC(=O)c1c(N)c2cccc(-c3cc(OCC4CCOCC4)ccc3F)c2[nH]c1=O [Example 135, 4-Amino-8-[2-fluoro-5-(tetrahydropyran-4-ylmethoxy)phenyl]-2-oxo-N-propyl-1H-quinoline-3-carboxamide]	0.20	0.7
CCCNC(=O)c1c(N)c2cccc(-c3cc(OCC4COC4)ccc3F)c2[nH]c1=O [Example 136, 4-Amino-8-[2-fluoro-5-(oxetan-3-ylmethoxy)phenyl]-2-oxo-N-propyl-1H-quinoline-3-carboxamide]	0.24	0.9
